From ChEMBL document CHEMBL3832555, “DailyMed|setid=f0492050-a966-41be-80b5-a58da7ba2bcf | PERINDOPRIL ERBUMINE-perindopril erbumine tablet|Lannett Company, Inc”

Test system: Homo sapiens
Assay: Evaluation of pharmacokinetic parameters for PERINDOPRIL and its active metabolite, PERINDOPRILAT,following single oral administration of PERINDOPRIL ERBUMINE tablets
Assay type: ADME, organism-based
Conditions: in vivo, dosed compound id 11, dosed compound name PERINDOPRIL ERBUMINE, tissue Plasma

Row | SMILES | F | Protein binding | Tmax | t1/2-elimination | t1/2
1 | CC(C)(C)N.CCC[C@H](N[C@@H](C)C(=O)N1[C@H](C(=O)O)C[C@@H]2CCCC[C@@H]21)C(=O)OCC [PERINDOPRIL ERBUMINE] | 75% | 60% | 1 h | 0.8 to 1 h | –
2 | CCC[C@H](N[C@@H](C)C(=O)N1[C@H](C(=O)O)C[C@@H]2CCCC[C@@H]21)C(=O)O [PERINDOPRILAT] | 25% | 10 to 20% | 3 to 7 h | 30 to 120 h | 3 to 10 h
